According to patent publication US20150250167A1, “COMPOSITION FOR NOXIOUS ORGANISMS-CONTROLLING AGENT AND METHOD FOR USING THE SAME” (priority 2001, published 2015):
Read-outs that look alike come from different tables or passages of the source.

Assays:
[1] = system: Green Peach Aphid (Myzus persicae); experiment: Insecticidal test on green peach aphid, spraying of Chinese cabbage, control value; assay type: in vivo; settings: single agent, 6 days after spraying
[2] = system: Cutworm; experiment: Test for the effect against cutworm on beet, drench, number of injured hills per 100 hills; assay type: in vivo
Protocol: Test for the Effect Against Cutworm on Beet
Beet seedlings (variety: Monoace S) planted in a paper pot was treated with 3 L/m^2 of a solution of an agent diluted to a predetermined concentration, by the method of drench. Just after the drench, the plant was set. Predetermined days after the setting, the number of injured hills per 100 hills was counted.

[3] = system: Citrus Yellow Thrips (Frankliniella occidentalis); experiment: Control of citrus yellow thrips on egg plant by combined use with natural enemy pesticide, number of thrips; assay type: in vivo; settings: 100 ppm, spray
[4] = system: Aphid; experiment: Control of aphid on cabbage by soil treatment, number of parasitic insects; assay type: in vivo; settings: 21 days after transplanting
Protocol: (§1) Test for the Control of Diamondback Moth (Plutella xyloxtella) and Aphid on Cabbage by Soil Treatment
A granular preparation was mixed into bed soil, and the mixture was filled into a cell seedling box and sown with seeds of cabbage (variety: YR Seitoku). Otherwise, cell seedling planted cabbage was treated with the granular agent either by a treatment in the foliage leaf extraction period, or by a pre-transplanting treatment, or by a pricking-in hole treatment, or by a plant foot treatment after the planting. […]

[5] = system: Rice Water Weevil (Lissorhoptrus oryzophilus); experiment: Control of rice water weevil on paddyfield rice by nursery box application, extent of injury; assay type: in vivo; settings: 0.5 g ai/Box, single agent
[6] = system: Rice Blast; settings: in vivo
[7] = system: Smaller Tea Tortrix (Adoxophyes orana fosciota); experiment: Insecticidal test on smaller tea tortrix, tea leaf dipping; assay type: in vivo; settings: 4th instar larvae, 25° C.; for pest or weed control at 1 ppm / pest or weed control at 50 ppm / pest or weed control at 0.1 ppm: Adoxophyes orana, foliar; for pest or weed control at 50 ppm: single agent 50 ppm
Protocol: Insecticidal Test on Smaller Tea Tortrix (Adoxophyes orana fosciota)
Tea leaves were dipped in a solution of a chemical diluted to a prescribed concentration for 30 seconds. […] Four days and seven days after the treatment, the number of alive insects were counted, from which percentage of death was calculated.

[8] = system: Southern Root-Knot Nematode (Meloidogyne incognita); experiment: Test for the effect on southern root-knot nematode, soil blending with granular preparation; assay type: in vivo; settings: 300 g ai/10a, single agent, 60 days after treatment
Text: Test for the Effect on Southern Root-Knot Nematode (Meloidogyne incognita)
Two killograms of a soil polluted with southern root-knot nematode was blended with a predetermined dose of a granular preparation. The mixture was filled into a 1/5,000 are Wagner pot. After sowing melon seeds and carrying out the treatment of the present invention, the pot was left to stand in a greenhouse. Sixty days after the treatment, 25 g of the soil was sampled out, the nematode was separated therefrom according to the method of Berman, and the numbers of nematodes were counted after 48 hours.
In the tables, “ai” means active ingredient.

[9] = system: Resistant Strain of Two-Spotted Spider Mite; settings: 100 ppm, single agent, 2 days after spraying
[10] = system: Brown Rice Planthopper (Nilaparvata lugens); experiment: Insecticidal test on brown rice planthopper, rice seedling dipping; assay type: in vivo; settings: single agent; for Death rate (%) After 1 days: after 1 day
Text: Insecticidal Test on Brown Rice Planthopper (Nilaparvata lugens)
Rice seedlings (variety: Nihombare) were dipped in a solution of an agent diluted to a predetermined concentration for 30 seconds. After air-dryness, each seedling was introduced into a glass-made test tube having a diameter of 1.8 cm and a height of 20 cm, and inoculated with ten 3rd inster nimphs of brown rice planthopper. Then, the test tube was stoppered with cotton. One day after and four days after the treatment, the number of alive insects was counted, based on which the insect death rate was calculated.

[11] = system: Small Brown Planthopper (Laodelphax striatellus); experiment: Control of small brown planthopper on paddyfield rice by nursery box application, number of parasitic insects; assay type: in vivo; settings: single agent
Protocol: (§2) Test for the Control of Small Brown Planthopper (Laodelphax striatellus) and Rice Leafroller (Cnaphalocrosis medinalis) on Paddyfield Rice Plant by Nursery Box Application
(§3) Fifty grams of a granular preparation was applied to rice plant (variety: Nihombare) cultured in a nursery box, after which the rice plant was transplanted to the main paddy field (in the middle of May). The controlling effect against small brown planthopper was evaluated by investigating the number of parasitic insects on 30 hills per each plot, 40 days and 60 days after the transplantation. The controlling effect against rice leafroller was evaluated by investigating the number of injured leaves on 100 hills per each plot, 50 days after the transplantation.

[12] = system: Diamondback Moth (Plutella xyloxtella); experiment: Control of diamondback moth on cabbage by soil treatment, number of parasitic insects; assay type: in vivo; settings: 21 days after transplanting
Protocol: as §1
A granular preparation was mixed into bed soil, and the mixture was filled into a cell seedling box and sown with seeds of cabbage (variety: YR Seitoku). Otherwise, cell seedling planted cabbage was treated with the granular agent either by a treatment in the foliage leaf extraction period, or by a pre-transplanting treatment, or by a pricking-in hole treatment, or by a plant foot treatment after the planting. Twenty one days after the transplanting (in the middle of June), the number of parasitic insects was counted on 30 hills in the case of diamondback moth and on 10 hills in the case of aphid.

[13] = system: Rice Leafroller (Cnaphalocrosis medinalis); experiment: Control of rice leafroller on paddyfield rice by nursery box application, number of injured leaves; assay type: in vivo; settings: single agent
Protocol: as §2, §3

[14] = Myzus persicae, 144 h, read-out: Control degree (%)
[15] = 5 mg ai/hill, plant foot treatment
[16] = 5 mg ai/hill, pre-transplanting treatment
[17] = 5 mg ai/hill, pricking-in hole treatment
[18] = 5 mg ai/hill, soil incorporation
[19] = 5 mg ai/hill, true leaf extraction season treatment
[20] = 96 h, single agent 1 ppm, read-out: Death rate (%) After 4 days
[21] = 168 h, single agent 1 ppm, read-out: Death rate (%) After 7 days
[22] = 20 mg ai/hill, picking-in hole treatment
[23] = 20 mg ai/hill, plant foot treatment
[24] = 20 mg ai/hill, pre-transplanting treatment

Cc1c(COC(=O)[C@@H]2[C@H](/C=C(\Cl)C(F)(F)F)C2(C)C)cccc1-c1ccccc1 (racemic) [bifenthrin]
pest or weed control at 0.1 ppm [1, 14]: 80%

Cc1cc(C(F)(F)C(F)(F)F)ccc1NC(=O)c1cccc(Cl)c1C(=O)NC(C)C [Compound 19]
Number of injured hills per 100 hills, After 60 days ([2]; 15 g ai/10a): 0
Number of injured hills per 100 hills, After 90 days ([2]; 15 g ai/10a): 8
Number of injured hills per 100 hills, After 120 days ([2]; 15 g ai/10a): 21
Number of parasitic insects per 20 leaves, After 60 days [3]: 20
Number of parasitic insects per 20 leaves, After 90 days [3]: 27
Number of parasitic insects per 20 leaves, After 120 days [3]: 55
Number of parasitic insects per 30 hills, Aphid [4, 15]: 489
Number of parasitic insects per 30 hills, Aphid [4, 16]: 399
Number of parasitic insects per 30 hills, Aphid [4, 17]: 467
Number of parasitic insects per 30 hills, Aphid [4, 18]: 445
Number of parasitic insects per 30 hills, Aphid [4, 19]: 457
Extent of injury After 21 days [5]: 38.9
Areal rate of disease spot (%) After 60 days [6]: 8.3%
Death rate (%) After 4 days ([7]; single agent 0.3 ppm): 0%
Death rate (%) After 7 days ([7]; single agent 0.3 ppm): 30%
Number of nematodes per 25 g of soil sample [8]: 36
Death rate (%) [9]: 0%
Control degree (%) ([1]; 100 ppm): 0%
Death rate (%) After 1 days ([10]; 100 ppm): 0%
Death rate (%) After 5 days ([10]; 100 ppm): 0%
Number of parasitic planthoppers per 30 hills After 40 days ([11]; 0.5 g ai/Box): 325
Number of parasitic planthoppers per 30 hills After 60 days ([11]; 0.5 g ai/Box): 389
Number of parasitic insects per 30 hills, Diamondback moth [12, 15]: 2
Number of parasitic insects per 30 hills, Diamondback moth [12, 16]: 1
Number of parasitic insects per 30 hills, Diamondback moth [12, 17]: 1
Number of parasitic insects per 30 hills, Diamondback moth [12, 18]: 1
Number of parasitic insects per 30 hills, Diamondback moth [12, 19]: 2
Percentage of injured leaves (%) After 50 days ([13]; 0.5 g ai/Box): 0.16%

COP(=O)(NC(C)=O)SC (stereo not shown) [acephate]
Number of injured hills per 100 hills, After 60 days ([2]; 50 g ai/10a): 2
Number of injured hills per 100 hills, After 90 days ([2]; 50 g ai/10a): 14
Number of injured hills per 100 hills, After 120 days ([2]; 50 g ai/10a): 24
pest or weed control at 10 ppm [1, 14]: 48%

CCOC(=O)CCN(SN(C)C(=O)Oc1cccc2c1OC(C)(C)C2)C(C)C [benfuracarb]
Number of parasitic planthoppers per 30 hills After 40 days ([11]; 2.5 g ai/Box): 78
Number of parasitic planthoppers per 30 hills After 60 days ([11]; 2.5 g ai/Box): 244
Percentage of injured leaves (%) After 50 days ([13]; 2.5 g ai/Box): 1.13%

CC(C)N1C(=O)N(c2ccccc2)CS/C1=N\C(C)(C)C [buprofezin]
Death rate (%) After 1 days ([10]; 0.3 ppm): 0%
Death rate (%) After 5 days ([10]; 0.3 ppm): 45%

CCOCn1c(-c2ccc(Cl)cc2)c(C#N)c(Br)c1C(F)(F)F [chlorfenapyr, reference compound]
pest or weed control at 1 ppm [7, 20]: 0%
pest or weed control at 1 ppm [7, 21]: 0%

O=C(NC(=O)c1c(F)cccc1F)Nc1cc(Cl)c(Oc2ncc(C(F)(F)F)cc2Cl)c(Cl)c1 [chlorfluazuron, reference compound]
pest or weed control at 1 ppm [7, 20]: 10%
pest or weed control at 1 ppm [7, 21]: 30%

CCOP(=S)(OCC)Oc1nc(Cl)c(Cl)cc1Cl [chlorpyriphos, reference compound]
pest or weed control at 1 ppm [7, 20]: 10%
pest or weed control at 1 ppm [7, 21]: 10%

CC(C)([CH2][Sn]([CH2]C(C)(C)c1ccccc1)([CH2]C(C)(C)c1ccccc1)[O][Sn]([CH2]C(C)(C)c1ccccc1)([CH2]C(C)(C)c1ccccc1)[CH2]C(C)(C)c1ccccc1)c1ccccc1 [fenbutatin oxide]
Death rate (%) [9]: 50%

Cc1nn(C)c(Oc2ccccc2)c1C=NOCc1ccc(C(=O)OC(C)(C)C)cc1 [fenpyroximate, reference compound]
pest or weed control at 50 ppm ([7]; 96 h, read-out: Death rate (%) After 4 days): 0%
pest or weed control at 50 ppm ([7]; 168 h, read-out: Death rate (%) After 7 days): 0%

O=C(NC(=O)c1c(F)cccc1F)Nc1ccc(Oc2ccc(C(F)(F)F)cc2Cl)cc1F [flufenoxuron]
pest or weed control at 50 ppm ([1]; Myzus persicae, 144 h, 50 ppm, read-out: Control degree (%)): 11%

CCOP(=O)(SC(C)CC)N1CCSC1=O (stereo not shown) [fosthiazate]
Number of nematodes per 25 g of soil sample [8]: 7

CC(C)(COCc1cccc(Oc2ccccc2)c1)c1ccc(OC(F)(F)Br)cc1 [halfenprox]
Death rate (%) [9]: 35%

O=[N+]([O-])NC1=NCCN1Cc1ccc(Cl)nc1 [imidacloprid]
Number of parasitic insects per 30 hills, Aphid [4, 22]: 16
Number of parasitic insects per 30 hills, Aphid [4, 23]: 13
Number of parasitic insects per 30 hills, Aphid [4, 24]: 10
pest or weed control at 0.1 ppm [1, 14]: 69%
Death rate (%) After 1 days ([10]; 0.1 ppm): 35%
Death rate (%) After 5 days ([10]; 0.1 ppm): 35%
Number of parasitic planthoppers per 30 hills After 40 days ([11]; 1 g ai/Box): 0
Number of parasitic planthoppers per 30 hills After 60 days ([11]; 1 g ai/Box): 29
Number of parasitic insects per 30 hills, Diamondback moth [12, 22]: 40
Number of parasitic insects per 30 hills, Diamondback moth [12, 23]: 38
Number of parasitic insects per 30 hills, Diamondback moth [12, 24]: 35
Percentage of injured leaves (%) After 50 days ([13]; 1 g ai/Box): 1.63%

COC(=O)N(C(=O)N1CO[C@@]2(C(=O)OC)Cc3cc(Cl)ccc3C2=N1)c1ccc(OC(F)(F)F)cc1 [indoxacarb, reference compound]
Death rate (%) After 4 days ([7]; single agent 1 ppm): 10%
Death rate (%) After 7 days ([7]; single agent 1 ppm): 40%

COc1cccc(C(=O)NN(C(=O)c2cc(C)cc(C)c2)C(C)(C)C)c1C [methoxyfenozide, reference compound]
pest or weed control at 0.1 ppm ([7]; 96 h, single agent 0.1 ppm, read-out: Death rate (%) After 4 days): 0%
pest or weed control at 0.1 ppm ([7]; 168 h, single agent 0.1 ppm, read-out: Death rate (%) After 7 days): 50%

CNC(=O)O/N=C(\SC)C(=O)N(C)C [oxamyl]
Number of nematodes per 25 g of soil sample [8]: 13

CC1=NNC(=O)N(/N=C/c2cccnc2)C1 [pymetrozin]
Death rate (%) After 1 days ([10]; 100 ppm): 10%
Death rate (%) After 5 days ([10]; 100 ppm): 40%

CC(C)(C)c1ccc(CSc2cnn(C(C)(C)C)c(=O)c2Cl)cc1 [pyridaben]
pest or weed control at 10 ppm [1, 14]: 43%

CCOc1ccc([Si](C)(C)CCCc2ccc(F)c(Oc3ccccc3)c2)cc1 [silafluofen]
Death rate (%) After 1 days ([10]; 1 ppm): 30%
Death rate (%) After 5 days ([10]; 1 ppm): 30%

CCc1nn(C)c(C(=O)NCc2ccc(C(C)(C)C)cc2)c1Cl [tebufenpyrad]
Death rate (%) [9]: 60%

emamectin-benzoate [reference compound]
Death rate (%) After 4 days ([7]; single agent 0.1 ppm): 10%
Death rate (%) After 7 days ([7]; single agent 0.1 ppm): 45%

milbemectin
Control degree (%) ([1]; 1 ppm): 82%
